# From patent US20090274622A1, “NECROSIS AVID TRACER AGENT” (K.U. Leuven Research & Development, priority 2003, published 2009)
# What was measured:
# HDL and LDL = settings: reference 37; cited from earlier work
# [1] = test system: reperfused hepatic infarction; experiment: Ex vivo autoradiography of rat liver slices with TTC and H&E staining
# [2] = test system: reperfused hepatic infarction; experiment: Biodistribution of MIH in rats with reperfused hepatic infarction (tissue radioactivity counting); settings: for Biodistribution, Blood / Biodistribution, Heart / Biodistribution, Kidneys / Biodistribution, Large intestine / Biodistribution, Lungs / Biodistribution, Muscle / Biodistribution, Necrotic liver / Biodistribution, Normal liver / Biodistribution, Small intestine / Biodistribution, Spleen / Biodistribution, Stomach / Biodistribution, Thyroid / Necrotic liver/Blood ratio / Necrotic liver/Intact liver ratio / Necrotic liver/Muscle ratio: i.v., mean ± SD, n = 3
# [3] = test system: occlusive myocardial infarction; experiment: In vivo SPECT imaging of rabbit with myocardial infarction; settings: 24 and 48 hours post injection
# Method: All animal experiments were conducted with the approval of the institutional ethical committee. • 1. […] Occlusive myocardial infarction: A New-Zealand adult rabbit weighing about 5 kg was sedated with intramuscular injection of a mixed solution of Ketalar (ketamine hydrochloride, Pfizer, Brussels, Belgium) at 15 mg/kg and Rompun (xylazine hydrochloride, Bayer, Leverkusen, Germany) at 2.5 mg/kg. The animal was then anaesthetized with an intravenous bolus injection of Nembutal at 15 mg/kg followed by IV infusion of Nembutal at 0.1 mg/kg/min through an ear vein. Under a cold-light laryngoscope with No. 1 pediatric blade (Riester®, Jungingen, Germany), the animal was intubated with a 3.5-mm endotracheal tube, which was then connected to an artificial ventilator (Mark 7 respirator, Bird Corporation, Palm Springs, Calif.). An open chest surgery of left posterolateral thoracotomy was performed. The pericardium was opened to expose the left circumflex coronary artery (LCX). A loose snare loop of a 3-0 silk suture was applied around the artery and tightened with ligature. The chest was closed after evacuation of the pneumothorax.
# Two hours after reperfusion of the myocardial infarction, the rabbit was intravenously injected with 130 MBq MIH via an ear vein.
# The rabbit imaging measurements were performed using a two-detector gamma camera (E-cam, Siemens Medical Systems, ErIangen, Germany). […]
# [4] = test system: occlusive myocardial infarction; experiment: Ex vivo autoradiography of rabbit heart slices
# [5] = test system: occlusive myocardial infarction; experiment: Tissue radioactivity counting of normal and infarcted rabbit myocardium; settings: gamma counting, 48 h
# [6] = quantification of autoradiography image
smiles,measurement,setting,value
"Cc1cc(O)c2c(=O)c3c(O)cc(O)c4c5c(O)c([123I])c(O)c6c(=O)c7c(O)cc(C)c8c1c2c(c34)c(c78)c65 [MIH, mono-[^123I]iodohypericin]",binding to HDL and LDL in vivo,HDL and LDL,bind extensively to HDL and LDL
same,autoradiography uptake in intact liver,[1]; 30 min p.i.,Pronounced radioactivity uptake
same,autoradiography uptake in necrotic regions of infarcted liver lobe,[1]; 30 min p.i.,low uptake of MIH
same,autoradiography uptake in intact liver,[1]; 24 h p.i.,activity from the intact liver has cleared
same,autoradiography uptake in necrotic regions of infarcted liver tissue,[1]; 24 h p.i.,relatively high uptake of MIH
same,concentration ratio necrotic liver vs. blood,[2]; 24 hours p.i.,17
same,concentration ratio necrotic liver vs. muscle,[2]; 24 hours p.i.,57
same,concentration in necrotic liver tissue relative to intact liver tissue,[2]; 24 h p.i.,3.2 times
same,in vivo deiodination (thyroid concentration),[2]; 24 h p.i.,in vivo deiodination of MIH occurs
same,"Biodistribution, Blood",[2]; 30 min p.i.,1.34 ± 0.38 % of injected dose per gram tissue
same,"Biodistribution, Heart",[2]; 30 min p.i.,0.47 ± 0.13 % of injected dose per gram tissue
same,"Biodistribution, Kidneys",[2]; 30 min p.i.,0.35 ± 0.05 % of injected dose per gram tissue
same,"Biodistribution, Large intestine",[2]; 30 min p.i.,0.03 ± 0.01 % of injected dose per gram tissue
same,"Biodistribution, Lungs",[2]; 30 min p.i.,1.60 ± 0.58 % of injected dose per gram tissue
same,"Biodistribution, Muscle",[2]; 30 min p.i.,0.03 ± 0.01 % of injected dose per gram tissue
same,"Biodistribution, Necrotic liver",[2]; 30 min p.i.,1.91 ± 0.46 % of injected dose per gram tissue
same,"Biodistribution, Normal liver",[2]; 30 min p.i.,3.80 ± 1.39 % of injected dose per gram tissue
same,"Biodistribution, Small intestine",[2]; 30 min p.i.,0.09 ± 0.03 % of injected dose per gram tissue
same,"Biodistribution, Spleen",[2]; 30 min p.i.,2.19 ± 0.18 % of injected dose per gram tissue
same,"Biodistribution, Stomach",[2]; 30 min p.i.,0.03 ± 0.00 % of injected dose per gram tissue
same,"Biodistribution, Thyroid",[2]; 30 min p.i.,0.16 ± 0.02 % of injected dose per gram tissue
same,Necrotic liver/Blood ratio,[2]; 30 min p.i.,1.44 ± 0.10
same,Necrotic liver/Intact liver ratio,[2]; 30 min p.i.,0.57 ± 0.28
same,Necrotic liver/Muscle ratio,[2]; 30 min p.i.,75.80 ± 16.34
same,"Biodistribution, Blood",[2]; 24 h p.i.,0.10 ± 0.01 % of injected dose per gram tissue
same,"Biodistribution, Heart",[2]; 24 h p.i.,0.24 ± 0.08 % of injected dose per gram tissue
same,"Biodistribution, Kidneys",[2]; 24 h p.i.,0.18 ± 0.02 % of injected dose per gram tissue
same,"Biodistribution, Large intestine",[2]; 24 h p.i.,1.47 ± 0.13 % of injected dose per gram tissue
same,"Biodistribution, Lungs",[2]; 24 h p.i.,1.06 ± 0.30 % of injected dose per gram tissue
same,"Biodistribution, Muscle",[2]; 24 h p.i.,0.03 ± 0.00 % of injected dose per gram tissue
same,"Biodistribution, Necrotic liver",[2]; 24 h p.i.,1.71 ± 0.32 % of injected dose per gram tissue
same,"Biodistribution, Normal liver",[2]; 24 h p.i.,0.55 ± 0.15 % of injected dose per gram tissue
same,"Biodistribution, Small intestine",[2]; 24 h p.i.,0.27 ± 0.02 % of injected dose per gram tissue
same,"Biodistribution, Spleen",[2]; 24 h p.i.,0.43 ± 0.07 % of injected dose per gram tissue
same,"Biodistribution, Stomach",[2]; 24 h p.i.,0.37 ± 0.13 % of injected dose per gram tissue
same,"Biodistribution, Thyroid",[2]; 24 h p.i.,9.25 ± 3.25 % of injected dose per gram tissue
same,Necrotic liver/Blood ratio,[2]; 24 h p.i.,17.40 ± 1.19
same,Necrotic liver/Intact liver ratio,[2]; 24 h p.i.,3.18 ± 0.49
same,Necrotic liver/Muscle ratio,[2]; 24 h p.i.,57.09 ± 4.24
same,"whole body SPECT, coronal section",[3],only one hot spot in the anatomical area of the heart
same,autoradiography distribution of radioactive uptake in heart slice,[4],radioactive uptake appears only in the infarcted region
same,uptake ratio infarcted tissue limited to subendocardial area vs. control tissue,[4]; [6],16
same,uptake ratio overall infarcted myocardium vs. intact myocardium,[4]; [6],about 6
same,radiotracer concentration in infarcted tissue vs healthy myocardium,[5],7 fold
same,uptake in the infarcted region of myocardium,[5],0.36 % of ID/g
same,uptake in the normal region of myocardium,[5],0.05 % of ID/g
"Cc1cc(O)c2c(=O)c3c(O)cc(O)c4c5c(O)cc(O)c6c(=O)c7c(O)cc(C)c8c1c2c(c34)c(c78)c65 [hypericine, hypericin, reference compound]",binding to HDL and LDL in vivo,HDL and LDL,bind extensively to HDL and LDL
